Patent US5256664A, “Antidepressant 3-halophenylpiperazinylpropyl derivatives of substituted triazolones and triazoldiones” (priority 1992, dated 1993)
Each block holds one compound with its values, some of them ahead of it.

Columns and labels:
[1] = circulating metabolite after nefazodone administration to humans and animals; format: in vivo, humans and animals (rat and dog)
Text: The present invention concerns compounds of Formula I and their acid addition salts and/or hydrates. [drawing 3] In the foregoing structural formula the symbol R denotes halogen, preferably chloro, and trifluoromethyl; Z is hydrogen and [drawing 4] with R^1 being hydrogen, halogen, C1-4 alkoxy and trifluoromethyl; and n is an integer from 2-4. The symbol X is either an oxygen atom, providing a carbonyl moiety; or is an acetyl group. The single and dotted lines represent either a covalent single bond or a double bond. The compounds of Formula I exist then in two structural subclasses, Ia and Ib. [drawing 5] Compounds of formula I arose from investigations of the metabolism of the antidepressant drug nefazodone. […] Subsequently, this new major metabolite was isolated and identified as having the following structure: [drawing 6]
It should be appreciated that compound Ib could also be obtained by enzymatic (human liver microsomes) conversion of compound Ia in vitro. Administration of nefazodone or structural analogs to mammals will result in significant plasma levels of the related Ib compounds. By "significant plasma levels" is meant that these levels are from one to several-fold higher than those of the parent drug.

cholinergic receptor = cholinergic receptor binding; settings: in vitro binding
Text: (§1) The Formula I compounds are useful pharmacologic agents with psychotropic properties. […] Specifically, nefazodone triazoldione (XIb, "nef-triazoldione") was comparatively tested with nefazodone and the 5-hydroxyethyl metabolite ("OH-nefazodone"). […] The latter observation is significant in that agents with low affinity for alpha-receptors relative to serotonin type 2 receptors are less likely to elicit certain undesirable side effects, such as sedation and lowering of blood pressure.

[2] = tested on: serotonin type 2 receptors; test: in vitro binding, serotonin type 2 receptors; settings: compared with nefazodone and OH-nefazodone
Text: as §1

alpha-receptor = alpha-receptor binding; settings: in vitro binding
Text: as §1

serotonin receptors = test: in vitro binding, serotonin receptors; settings: in vitro binding testing
Text: as §1

[3] = tested on: serotonin type 2 receptor sites; test: 5-HT2-mediated DOI-induced headshake response in rat; format: in vivo; settings: acute effect
Description: The efficacy of nef-triazoldione at serotonin type 2 receptor sites in vivo was determined by examining its acute effect in a rat model based on the 5-HT2 -mediated DOI (chemically, 1-(2,5-dimethoxy-4-iodophenyl)-2-aminopropane)-induced headshake response. Cf: Bedard and Pycock, Neuropharmacology 16: 663-670 (1977). […] Thus the in vivo results which correlate with selective in vitro binding are indicative of useful antidepressant effects following systemic administration of these compounds.

dopamine receptor = dopamine receptor binding; settings: in vitro binding
Text: as §1

[4] = HPLC of plasma from dogs given nefazodone; format: in vivo, dog; settings: identified by HPLC retention time only
Text: The similarity of HPLC retention times for both keto-nefazodone and the parent drug nefazodone in many HPLC systems, as well as the small amount of the compound complicate the detection of this putative metabolite.

[5] = metabolite conversion experiment with in vitro human liver microsomal preparation; format: in vitro ADME; settings: compound as substrate
[6] = compared with nefazodone and OH-nefazodone

cholinergic receptor binding (cholinergic receptor): relatively inactive
alpha-receptor binding (alpha-receptor): relatively inactive
dopamine receptor binding (dopamine receptor): relatively inactive
SMILES: Cl.O=c1[nH]n(CCCN2CCN(c3cccc(Cl)c3)CC2)c(=O)n1CCOc1ccccc1 [nef-triazoldione, 2-(3-[4-(3-Chlorophenyl)-1-piperazinyl]propyl)-4-(2-phenoxyethyl)-4H-1,2,4-triazole-3,5(1H,2H)-dione hydrochloride]
metabolite in urine or bile samples ([1]; following nefazodone administration): No indication of this circulating metabolite had been seen in urine or bile samples
blood levels of metabolite ([1]; following nefazodone administration to humans and animals (rat and dog)): Blood levels of a new and uncharacterized major metabolite of nefazodone were observed
binding at serotonin type 2 receptors [2]: not as robust as for both nefazodone and OH-nefazodone
affinity at alpha-receptor binding sites relative to reference compounds (alpha-receptor; [6]): lower affinity at alpha-receptor binding sites than the two reference compounds
affinity for serotonin receptors (serotonin receptors): displays affinity for serotonin receptors
inhibition of the DOI-induced headshake response [3]: modest inhibition
potency in DOI-induced headshake test relative to reference compounds [3, 6]: less potent than either nefazodone or OH-nefazodone

amount in plasma by HPLC [4]: small amounts
SMILES: CC(=O)c1nn(CCCN2CCN(c3cccc(Cl)c3)CC2)c(=O)n1CCOc1ccccc1.Cl [keto-nefazodone, 2-(3-[4-(3-Chlorophenyl)-1-piperazinyl]propyl)-5-acetyl-2,4-dihydro-4-(2-phenoxyethyl)-3H-1,2,4-triazol-3-one hydrochloride]
metabolite produced from substrate [5]: nefazodone triazoldione (XIb) was produced and isolated

SMILES: CC(O)c1nn(CCCN2CCN(c3cccc(Cl)c3)CC2)c(=O)n1CCOc1ccccc1 (centres unmarked) [OH-nefazodone]
affinity for serotonin receptors (serotonin receptors): displays affinity for serotonin receptors

SMILES: CCc1nn(CCCN2CCN(c3cccc(Cl)c3)CC2)c(=O)n1CCOc1ccccc1 [nefazodone, Nefazodone]
affinity for serotonin receptors (serotonin receptors): displays affinity for serotonin receptors
